Measured values reported in publication PMC10106456 (Communications Biology, 2023).
Values joined by “and” are separate entries in the source; they are usually repeats but may differ in a detail not shown here. Equal values may be shown once. Read-outs that look alike come from different tables or passages of the source.

What was measured:
[1] = tested on: E. coli DH5αZ1 + pZE24 (empty); assay: Microbroth dilution antibiotic susceptibility test (MIC); assay type: cell-based; conditions: Escherichia coli, 20 h, drug alone
Method: (§1) For high expression, 1 mM IPTG fully relieves repression by LacI[44] thus only IPTG was used in whole-cell tests. Chemically-competent E. coli DH5αZ1 (Expressys) was transformed with these pZE24 constructs by heat shock. Minimum inhibitory concentrations (MICs) were measured as per Clinical and Laboratory Standards Institute (CLSI) guidelines. Substrates and inhibitors were dissolved in DMSO (20 mg/mL) then diluted to working concentrations in cation-adjusted Mueller-Hinton II broth supplemented with 50 μg/mL kanamycin (Supplementary Data 2). Antibiotic susceptibility testing panels were prepared in 96-well flat-bottom microplates (Corning) by two-fold serial dilution of the antibiotic of interest (Supplementary Data 3). […] Liquid cultures of each strain were grown to exponential phase then diluted to a standard concentration (OD600 = 0.0015, which is equivalent to double ~5 × 10^5 CFU/mL) and inoculated into each panel at a 1:1 ratio. […] Each strain-antibiotic/inhibitor combination was tested in triplicate, along with no-drug and no-cell controls. Inoculated panels were sealed with Breathe-Easy membranes (Sigma-Aldrich) and incubated at 37 °C for 20 h. MICs were scored by absorbance measurements at 600 nm (OD600) using the Synergy H1 microplate reader (Biotek Instruments, Inc).

[2] = tested on: E. coli DH5αZ1 + pZE24-tet(X6); assay: as above; assay type: cell-based; conditions: Escherichia coli
Method: as §1

[3] = tested on: E. coli DH5αZ1 + pZE24-tet(X7); assay: as above; assay type: cell-based; conditions: Escherichia coli, 20 h
Method: as §1

[4] = tested on: E. coli expressing Tet(X6); assay type: cell-based; conditions: pZE24-tetX6, panel concentrations in μg/mL per Supp. Data 3
Method: as §1

[5] = tested on: E. coli DH5αZ1 pZE24-empty; assay: Checkerboard whole cell inhibition assay (tetracycline + anhydrotetracycline); assay type: cell-based
Method: as §1

[6] = tested on: E. coli expressing Tet(X7); assay: as above; assay type: cell-based; conditions: pZE24-tetX7, panel concentrations in μg/mL per Supp. Data 3
Method: as §1

[7] = biological target: T1, Tet(X6) (Proteus genomosp. 6, UniProt A0A6I7DAX3); conditions: for Slope (initial velocity of substrate degradation): trials 1-3, absorbance 400 nm (440 nm for aTC)
Method: All experiments were prepared open to air in non-degassed buffer solutions at room temperature. […] Initial enzyme velocities were determined by linear regression using Agilent Cary WinUV Software over the linear range of the reaction (typically between 0 to 1 min), plotted against the concentration of the substrate, and fitted to the Michaelis–Menten or allosteric sigmoidal nonlinear regression equations using GraphPad Prism 6.

[8] = biological target: T1, Tet(X6); assay: Apparent Tet(X6) inhibitor IC50 (optical absorbance assay); assay type: biochemical, Proteus genomospecies; conditions: for IC50: Tet(X6); for Slope (velocity of substrate degradation in presence of aTC): trials 1-3
Method: All experiments were prepared open to air in non-degassed buffer solutions at room temperature. […] Initial enzyme velocities were determined by linear regression using Agilent Cary WinUV Software over the linear range of the reaction (typically between 0 to 1 min). The velocities were plotted against the logarithm of inhibitor concentration, and apparent IC50 values were determined using nonlinear regression analysis in GraphPad Prism v6. Each set of experiments included a no-TDase control reaction which was used as the full enzyme inhibition velocity and assigned to an inhibitor concentration of 1 × 10^15, as well as a no-inhibitor control which was assigned an inhibitor concentration of 1 × 10^–15.

[9] = biological target: T1, Tet(X6); assay: Substrate degradation by scanning optical absorbance spectroscopy; assay type: biochemical, Proteus genomospecies; conditions: in the presence of Tet(X6), NADPH, and O2; 20 μM substrate, 2 h
Method: (§2) All in vitro kinetic assays were prepared open to air in non-degassed buffer solutions at room temperature. […] In vitro reactions were monitored by optical absorbance spectroscopy on an Agilent Cary 50 UV-visible spectrophotometer using polystyrene cuvettes. Reaction progress was monitored by optical absorbance spectroscopy (280−550 nm, 1 nm and 5 min intervals) over 2 h. […] The quenched samples were centrifuged (5000 rpm, 4 °C) for 5 min, and 600 μL of the resulting supernatant was mixed with an Fmoc-Ala internal standard (3.12 μM final concentration) and analyzed by LC-MS in positive ion mode (single trial). LC-MS was acquired using an Agilent 6130 single quadrupole instrument (ESI + ) with G1313 autosampler, G1315 diode array detector, and 1200 series solvent module with separation on a Phenomenex Gemini C18 column, 50 × 2 mm (5 um) fit with a guard column cassette. LCMS solvents were 0.1% formic acid in H2O (A) and 0.1% formic acid in acetonitrile (B). […] LCMS data were processed using ChemStation software version B.04.02 SP1. Extracted ion chromatograms (EICs) for the expected [M + H]^+ molecular ions corresponding to substrate and mono-hydroxylated product were normalized to the [M + H]^+ counts for an Fmoc-Ala internal standard.

[10] = biological target: T1, Tet(X6); assay: Substrate degradation by LC-MS (extracted ion counts); assay type: biochemical, Proteus genomospecies; conditions: Tet(X6) reaction of aTC
Method: as §2

T1 sequence (A0A6I7DAX3 entry or part of it): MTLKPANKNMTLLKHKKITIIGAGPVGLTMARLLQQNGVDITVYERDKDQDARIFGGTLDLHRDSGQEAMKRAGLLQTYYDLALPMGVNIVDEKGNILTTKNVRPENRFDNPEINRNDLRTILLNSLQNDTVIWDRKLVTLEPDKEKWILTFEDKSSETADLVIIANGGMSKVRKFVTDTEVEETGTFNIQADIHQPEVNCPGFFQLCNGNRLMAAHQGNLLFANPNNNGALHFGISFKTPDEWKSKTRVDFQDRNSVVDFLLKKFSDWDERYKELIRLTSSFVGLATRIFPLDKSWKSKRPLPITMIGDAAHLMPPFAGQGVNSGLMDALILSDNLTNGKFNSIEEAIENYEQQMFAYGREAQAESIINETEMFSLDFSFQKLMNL

Cc1c2c(c(O)c3c(O)cccc13)C(=O)[C@]1(O)C(=O)C(C(N)=O)=C(O)[C@@H](N(C)C)[C@@H]1C2 [aTC, anhydrotetracycline]
MIC [1]: 4 µg/mL | MIC [2]: 32 µg/mL | MIC [3]: 8 µg/mL | ATC concentration inhibiting growth at fixed TET (Fig3a source data) ([4]; TET 0): 32 | ATC concentration inhibiting growth at fixed TET (Fig3a source data) ([4]; TET 1): 32 | ATC concentration inhibiting growth at fixed TET (Fig3a source data) ([4]; TET 2): 32 | ATC concentration inhibiting growth at fixed TET (Fig3a source data) ([4]; TET 4): 32 | ATC concentration inhibiting growth at fixed TET (Fig3a source data) ([4]; TET 8): 32 | ATC concentration inhibiting growth at fixed TET (Fig3a source data) ([4]; TET 16): 16 | ATC concentration inhibiting growth at fixed TET (Fig3a source data) ([4]; TET 32): 16 | ATC concentration inhibiting growth at fixed TET (Fig3a source data) ([4]; TET 64): 16 | ATC concentration inhibiting growth at fixed TET (Fig3a source data) ([4]; TET 128): 8 | ATC concentration inhibiting growth at fixed TET (Fig3a source data) ([4]; TET 256): 0 | ATC concentration inhibiting growth at fixed TET (Fig3a source data) ([5]; TET 0, panel concentrations in μg/mL per Supp. Data 3): 4 | ATC concentration inhibiting growth at fixed TET (Fig3a source data) ([5]; TET 1, panel concentrations in μg/mL per Supp. Data 3): 0 | ATC concentration inhibiting growth at fixed TET (Fig3a source data) ([6]; TET 0): 8 | ATC concentration inhibiting growth at fixed TET (Fig3a source data) ([6]; TET 1): 8 | ATC concentration inhibiting growth at fixed TET (Fig3a source data) ([6]; TET 2): 4 | ATC concentration inhibiting growth at fixed TET (Fig3a source data) ([6]; TET 4): 4 | ATC concentration inhibiting growth at fixed TET (Fig3a source data) ([6]; TET 8): 2 | ATC concentration inhibiting growth at fixed TET (Fig3a source data) ([6]; TET 16): 0.5 | ATC concentration inhibiting growth at fixed TET (Fig3a source data) ([6]; TET 32): 0 | factor by which apparent kcat is lower than for tetracycline antibiotic substrates ([7]; Tet(X6)): ≤ 7 | Slope (initial velocity of substrate degradation) ([7]; [Sub] 1.94805 μM): 0.0038 and 0.0045 and 0.003 | Slope (initial velocity of substrate degradation) ([7]; [Sub] 3.8961 μM): 0.0098 and 0.0073 and 0.0072 | Slope (initial velocity of substrate degradation) ([7]; [Sub] 6.16883 μM): 0.0097 and 0.0093 and 0.009 | Slope (initial velocity of substrate degradation) ([7]; [Sub] 8.11688 μM): 0.0054 and 0.0074 and 0.0086 | Slope (initial velocity of substrate degradation) ([7]; [Sub] 20.1299 μM): 0.0109 and 0.0073 and 0.0099 | Slope (initial velocity of substrate degradation) ([7]; [Sub] 29.8701 μM): 0.0108 and 0.0104 and 0.0106 | Michaelis-menten nonlinear fit, best-fit Vmax ([7]; supplementary source data, Tet(X6) 0.4 µM): 0.01106 | IC50 ([8]; IC50, aTC inhibition of ERA degradation, substrate ERA): 9 ± 1 µM | IC50 ([8]; IC50, aTC inhibition of OMA degradation, substrate OMA): 12 ± 4 µM | IC50 ([8]; IC50, aTC inhibition of TIG degradation, substrate TIG): 2.2 ± 0.2 µM | Slope (velocity of substrate degradation in presence of aTC) ([8]; substrate Erav, log[aTC] μM 0.81): 0.0443 and 0.0431 and 0.045 | Slope (velocity of substrate degradation in presence of aTC) ([8]; substrate Erav, log[aTC] μM 1.41): 0.0266 and 0.0254 and 0.0225 | Slope (velocity of substrate degradation in presence of aTC) ([8]; substrate Erav, log[aTC] μM 1.72): 0.0176 and 0.0178 and 0.0199 | Slope (velocity of substrate degradation in presence of aTC) ([8]; substrate Erav, log[aTC] μM 2.07): 0.0149 and 0.0154 and 0.0125 | Slope (velocity of substrate degradation in presence of aTC) ([8]; substrate Erav, log[aTC] μM 2.16): 0.007 and 0.0075 and 0.0083 | Slope (velocity of substrate degradation in presence of aTC) ([8]; substrate Omad, log[aTC] μM 0.81): 0.0132 and 0.0149 and 0.0223 | Slope (velocity of substrate degradation in presence of aTC) ([8]; substrate Omad, log[aTC] μM 1.41): 0.0111 and 0.0097 and 0.0109 | Slope (velocity of substrate degradation in presence of aTC) ([8]; substrate Omad, log[aTC] μM 1.72): 0.0072 and 0.0051 and 0.0089 | Slope (velocity of substrate degradation in presence of aTC) ([8]; substrate Omad, log[aTC] μM 2.16): 0.0042 and 0.007 and 0.0037 | Slope (velocity of substrate degradation in presence of aTC) ([8]; substrate Tig, log[aTC] μM 0.81): 0.0454 and 0.0455 and 0.0453 | Slope (velocity of substrate degradation in presence of aTC) ([8]; substrate Tig, log[aTC] μM 1.41): 0.0221 and 0.024 and 0.0233 | Slope (velocity of substrate degradation in presence of aTC) ([8]; substrate Tig, log[aTC] μM 1.72): 0.0213 and 0.0168 and 0.0171 | Slope (velocity of substrate degradation in presence of aTC) ([8]; substrate Tig, log[aTC] μM 2.07): 0.0168 and 0.0154 and 0.0122 | Slope (velocity of substrate degradation in presence of aTC) ([8]; substrate Tig, log[aTC] μM 2.16): 0.0135 and 0.0131 and 0.0184 | degradation observed by optical absorbance [9]: time-dependent decrease at 440 nm | Percent Ion Count (relative %) ([10]; time 0 min): 100% | Percent Ion Count (relative %) ([10]; time 5 min): 95.7447% | Percent Ion Count (relative %) ([10]; time 30 min): 80% | Percent Ion Count (relative %) ([10]; time 60 min): 64.9123% | Percent Ion Count (relative %) ([10]; time 90 min): 74.5098% | Percent Ion Count (relative %) ([10]; time 120 min): 75.7895%
